The values below come from US9133178B2, “Alpha-7 nicotinic receptor modulators for the treatment of pain, a psychotic disorder, cognitive impairment or alzheimer'S disease” (Proximagen Limited, priority 2010, dated 2015).

Counter-ions that a name gives are not always drawn.

T1 sequence (P36544 23-502): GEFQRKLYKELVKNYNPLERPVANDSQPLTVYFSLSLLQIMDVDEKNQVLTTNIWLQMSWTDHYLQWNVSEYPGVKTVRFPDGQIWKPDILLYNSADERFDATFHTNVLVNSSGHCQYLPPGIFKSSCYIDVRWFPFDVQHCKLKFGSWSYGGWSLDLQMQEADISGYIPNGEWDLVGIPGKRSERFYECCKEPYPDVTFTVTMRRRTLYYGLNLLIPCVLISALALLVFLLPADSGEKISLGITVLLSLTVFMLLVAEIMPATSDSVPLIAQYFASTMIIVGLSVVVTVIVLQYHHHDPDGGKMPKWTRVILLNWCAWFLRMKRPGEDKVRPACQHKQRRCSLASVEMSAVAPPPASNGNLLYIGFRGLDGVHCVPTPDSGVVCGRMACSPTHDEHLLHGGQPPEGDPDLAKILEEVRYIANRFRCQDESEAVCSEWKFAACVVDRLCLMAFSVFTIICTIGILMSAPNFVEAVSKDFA

The first assay addresses T1, human α7 nAChR (Homo sapiens, UniProt P36544).
T1 construct: expressed in transfected cells; host or cells: GH4C1 (rat pituitary cell line)
Nature of the assay: cell-based calcium flux assay (FLIPR) for PAM activity at the α7 nAChR. Particulars: Table 1; potentiation of nicotine-evoked calcium flux, GH4C1 cells stably transfected with human α7 nAChR; read-out: a7 new sm > PXC50 MEAN. As to the method: The PAM activity of the compounds of the invention at the α7 nAChR may be determined using the following cell-based calcium flux assay which uses a Fluorimetric Image Plate Reader (FLIPR) (see Schroeder et al.; J. Biomolecular Screening, 1(2), p 75-80, 1996).
GH4C1 cell line stably transfected with human α7 nAChR was suspended in a 384 well plate and incubated at 30° C. for 48 h in a 5% carbon dioxide atmosphere. The growth media was removed and the cells washed three times with a solution of Hanks' balanced salt solution (HBSS), 20 mM HEPES and 2.5 mM probenecid leaving 20 μl washing solution in each well. A loading solution (200) containing HBSS, probenecid, 1-4 μM Fluo4 AM (a calcium indicator dye) and pluronic acid was added and the plate incubated for 45 min at 37° C. under an atmosphere free from carbon dioxide. The cells were washed three times leaving 30 μl in each well. The plate containing the cells and calcium indicator dye were then transferred to the FLIPR. The assay was initiated by collecting baseline datapoints at 10 second intervals followed by addition of the test compound in buffer solution (0.33% DMSO) and diluted to a final concentration of 10 μM and serial dilution of the wells, 1:2 or 1:3, gave a low concentration of <1 nM. Following a further 5-10 mins 10 μl of 50 μM nicotine was added and data collected for 2 to 3 mins. Nicotine produced a rapid, transient and reproducible calcium flux which could be potentiated with the positive allosteric modulator test compounds.
For orientation: Calcium assays in cells follow changes in intracellular calcium, usually with a dye or a luminescent sensor.
`Cc1cc(-c2cnc(N3C[C@H](C)O[C@@H](C)C3)nc2-c2ccoc2C)ccn1` (relative stereo) [Example 6, trans-2,6-Dimethyl-4-[4-(2-methyl-3-furanyl)-5-(2-methyl-4-pyridinyl)-2-pyrimidinyl]morpholine hydrochloride]: the EC50 was at most 1 µM.
On the same count and under the same terms, in the case of `Cc1occc1-c1nc(N2CCCC(C)C2)ncc1-c1ccncc1` (centres unmarked) [Example 1, 4-(2-Methyl-3-furanyl)-2-(3-methyl-1-piperidinyl)-5-(4-pyridinyl)pyrimidine hydrochloride] it was at most 1 µM; in that of `Cc1occc1-c1nc(N2CCCC(C)C2)ncc1-c1cccnc1` (centres unmarked) [Example 2, 4-(2-Methyl-3-furanyl)-2-(3-methyl-1-piperidinyl)-5-(3-pyridinyl)pyrimidine hydrochloride], at most 10 µM.
For `Cc1cc(-c2cnc(N3CCCC(C)C3)nc2-c2ccoc2C)ccn1` (centres unmarked) [Example 3, 4-(2-Methyl-3-furanyl)-2-(3-methyl-1-piperidinyl)-5-(2-methyl-4-pyridinyl)pyrimidine hydrochloride], the EC50 is at most 1 µM.
On the same count and under the same terms, the figure for `Cc1cc(-c2cnc(N3CCCCC3)nc2-c2ccoc2C)ccn1` [Example 4, 4-(2-Methyl-3-furanyl)-5-(2-methyl-4-pyridinyl)-2-(1-piperidinyl)pyrimidine hydrochloride] is at most 1 µM.
For the compound `Cc1cc(-c2cnc(N3C[C@@H](C)O[C@@H](C)C3)nc2-c2ccoc2C)ccn1` [Example 5, cis-2,6-Dimethyl-4-[4-(2-methyl-3-furanyl)-5-(2-methyl-4-pyridinyl)-2-pyrimidinyl]morpholine hydrochloride], the EC50 was at most 1 µM.
On the same count and under the same terms, in the case of `Cc1occc1-c1nc(N2CCCCCC2)ncc1-c1ccccn1` [Example 7, 1-[4-(2-Methyl-3-furanyl)-5-(2-Pyridinyl)-2-pyrimidinyl]hexahydro-1H-azepine hydrochloride] it was at most 10 µM.
Same read-out and setting: the figure for `Cc1occc1-c1nc(N2CCCC(C)C2)ncc1-c1ccccn1` (centres unmarked) [Example 8, 4-(2-Methyl-3-furanyl)-2-(3-methyl-1-piperidinyl)-5-(2-pyridinyl)pyrimidine hydrochloride] is at most 3.16 µM.
The same measure, in the same setting: in the case of `Cc1cc(-c2cnc(N3C[C@@H](C)O[C@@H](C)C3)nc2CC(C)C)ccn1` [Example 9, cis-2,6-Dimethyl-4-[4-(2-methylpropyl)-5-(2-methyl-4-pyridinyl)-2-pyrimidinyl]morpholine hydrochloride] it was at most 1 µM.
Turning to `Cc1cc(-c2ncc(N3C[C@@H](C)O[C@@H](C)C3)nc2-c2ccoc2C)ccn1` [Example 10, cis-2,6-Dimethyl-4-[6-(2-methyl-3-furanyl)-5-(2-methyl-4-pyridinyl)-2-pyrazinyl]morpholine hydrochloride], the EC50 is at most 3.16 µM.
Still for that read-out and setting: in the case of `Cc1cc(-c2cnc(N3C[C@@H](C)O[C@@H](C)C3)cc2-c2ccoc2C)ccn1` [Example 11, 6-(cis-2,6-dimethyl-4-morpholinyl)-2′-methyl-4-(2-methyl-3-furanyl)-3,4′-bipyridine hydrochloride] it was at most 3.16 µM; in that of `Cc1cc(-c2ccc(N3C[C@@H](C)O[C@@H](C)C3)nc2-c2ccoc2C)ccn1` [Example 12, 6-(cis-2,6-dimethyl-4-morpholinyl)-2′-methyl-2-(2-methyl-3-furanyl)-3,4′-bipyridine hydrochloride], at most 3.16 µM.
On the same count and under the same terms, in the case of `Cc1cc(-c2ccc(N3C[C@@H](C)O[C@@H](C)C3)cc2-c2ccoc2C)ccn1` [Example 13, cis-2,6-Dimethyl-4-[3-(2-methyl-3-furanyl)-4-(2-methyl-4-pyridinyl)phenyl]morpholine] it was at most 1 µM.
Same read-out and setting: in the case of `Cc1cc(-c2cnc(N3C[C@@H](C)O[C@@H](C)C3)nc2-c2ccccc2C)ccn1` [Example 14, cis-2,6-Dimethyl-4-[4-(2-methylphenyl)-5-(2-methyl-4-pyridinyl)-2-pyrimidinyl]morpholine] it was at most 3.16 µM; in that of `Cc1cnccc1-c1cnc(N2C[C@@H](C)O[C@@H](C)C2)nc1-c1ccoc1C` [Example 15, cis-2,6-dimethyl-4-[4-(2-methyl-3-furanyl)-5-(3-methyl-4-pyridinyl)-2-pyrimidinyl]morpholine hydrochloride], at most 3.16 µM; in that of `Cc1cc(-c2cnc(N3C[C@@H](C)O[C@@H](C)C3)nc2-c2cccnc2C(F)(F)F)ccn1` [Example 16, cis-2,6-Dimethyl-4-{5-(2-methyl-4-pyridinyl)-4-[2-(trifluoromethyl)-3-pyridinyl]-2-pyrimidinyl}morpholine hydrochloride], at most 10 µM.
Take `Cc1cc(-c2cnc(N3C[C@@H](C)O[C@@H](C)C3)nc2-c2cnc(F)cc2C)ccn1` [Example 17, cis-4-[4-(6-Fluoro-4-methyl-3-pyridinyl)-5-(2-methyl-4-pyridinyl)-2-pyrimidinyl]-2,6-dimethylmorpholine hydrochloride]: the EC50 is at most 3.16 µM.
The same measure, in the same setting: in the case of `Cc1cc(-c2cnc(N3C[C@@H](C)O[C@@H](C)C3)nc2-c2cc(F)ccc2C#N)ccn1` [Example 18, cis-2-[2-(2,6-Dimethyl-4-morpholinyl)-5-(2-methyl-4-pyridinyl)-4-pyrimidinyl]-4-fluorobenzonitrile hydrochloride] it was at most 10 µM; in that of `Cc1cc(-c2cnc(N3C[C@@H](C)O[C@@H](C)C3)nc2-c2cccc(C(F)(F)F)c2C#N)ccn1` [Example 19, cis-2-[2-(2,6-dimethyl-4-morpholinyl)-5-(2-methyl-4-pyridinyl)-4-pyrimidinyl]-6-(trifluoromethyl)benzonitrile hydrochloride], at most 1 µM.

The same assay, now with this note: Table 2, commercially available compounds; potentiation of nicotine-evoked calcium flux, GH4C1 cells stably transfected with human α7 nAChR; read-out: a7 new sm > PXC50 MEAN.
`Cc1occc1-c1nc(N2CCCC2)ncc1-c1ccncc1` [ADM 13269675]: the EC50 is at most 3.16 µM.
On the same count and under the same terms, the figure for `Cc1occc1-c1nc(N2CCCCC2)ncc1-c1ccncc1` [ADM 13269676] is at most 1 µM; for `Cc1occc1-c1nc(N2CCCC(C)C2)ncc1-c1ccncc1` (centres unmarked) [ADM 13269678] it is at most 1 µM.
For the compound `Cc1occc1-c1nc(N2CCSCC2)ncc1-c1ccncc1` [ADM 13269686], the EC50 was at most 3.16 µM.
Still for that read-out and setting: in the case of `Cc1occc1-c1nc(N2CC(C)OC(C)C2)ncc1-c1ccncc1` (centres unmarked) [ADM 13269721] it was at most 1 µM; in that of `Cc1occc1-c1nc(N2CCN(C(=O)c3ccco3)CC2)ncc1-c1ccccn1` [ADM 13270126], at most 10 µM; in that of `Cc1ccc(-c2nc(N3CCCC3)ncc2-c2cc(C)no2)cn1` [ADM 14220366], at most 10 µM.
Still for that read-out and setting: the figure for `Cc1ccc(-c2nc(N3CCCC(C)C3)ncc2-c2cc(C)no2)cn1` (centres unmarked) [ADM 14220368] is at most 1 µM.
Consider `Cc1ccc(-c2nc(N3CCCCC3)ncc2-c2cc(C)no2)cn1` [ADM 14220371], for which the EC50 was at most 1 µM.
On the same count and under the same terms, the figure for `Cc1cc(-c2cnc(N3CCSCC3)nc2-c2ccc(C)s2)on1` [ADM 14408364] is at most 3.16 µM; for `c1cc(-c2cnc(N3CCSCC3)nc2-c2ccoc2)ccn1` [ADM 14465558] it is at most 1 µM; for `c1cc(-c2cnc(N3CCCCC3)nc2-c2ccoc2)ccn1` [ADM 14465561] it is at most 10 µM.
Still for that read-out and setting: in the case of `Cc1cc(-c2cnc(N3CCSCC3)nc2-c2ccc(C)o2)on1` [AEM 14465590] it was at most 3.16 µM.
Take `c1ccc(-c2nnc(N3CCCC3)nc2-c2ccccc2)cc1` [AO-476/43380313]: the EC50 was at most 1 µM.
The same measure, in the same setting: the figure for `Cc1ccc(-c2nc(N3CCCCC3)ncc2-c2ccncc2)cn1` [AOP 13274014] is at most 3.16 µM; for `Cc1ccc(-c2nc(N3CCCC(C)C3)ncc2-c2ccncc2)cn1` (centres unmarked) [AOP 13274016] it is at most 1 µM.
The same measure, in the same setting: in the case of `Cc1noc(C)c1-c1nc(N2CCCC(C)C2)ncc1-c1ccncc1` (centres unmarked) [AOP 14465526] it was at most 3.16 µM; in that of `Cc1noc(C)c1-c1nc(N2CCSCC2)ncc1-c1ccncc1` [AOP 14465529], at most 10 µM; in that of `Cc1noc(C)c1-c1nc(N2CCCCCC2)ncc1-c1ccncc1` [AOP 14465544], at most 3.16 µM.
Same read-out and setting: the figure for `Cc1occc1-c1nc(N2CCCCCC2)ncc1-c1ccncc1` [ATL 13269690 or ADM 13269690] is at most 3.16 µM; for `COc1cc(-c2cnc(N3CCCC3)nc2-c2ccco2)nc(OC)n1` [ATL 14631887] it is at most 10 µM; for `COc1cc(-c2cnc(N3CCCCC3)nc2-c2ccco2)nc(OC)n1` [ATL 14631888] it is at most 10 µM.
In the case of `CC1CCCN(c2ncc(-c3ccncc3)c(-c3ccco3)n2)C1` (centres unmarked) [LMK 13268083], the EC50 was at most 10 µM.
On the same count and under the same terms, in the case of `c1coc(-c2cnc(N3CCSCC3)nc2-c2ccco2)c1` [LMK 13280444] it was at most 3.16 µM.

Staying with this assay, now noted: further batch (as the HCl salt); read-out: pEC50 (converted).
With `Cc1cc(-c2cnc(N3C[C@@H](C)O[C@@H](C)C3)nc2-c2ccccc2C#N)ccn1`, the EC50 was above 10 µM.

Staying with this assay, now noted: further batch (as the HCl salt); relative to nicotine control.
Turning to `Cc1cc(-c2cnc(N3C[C@@H](C)O[C@@H](C)C3)nc2-c2ccccc2C#N)ccn1`, the “maximum potentiation of the response area relative to nicotine control” value is reported as “approximately 1200%”.

Staying with this assay, now noted: potentiation of nicotine-evoked calcium flux; read-out: pEC50 (converted).
On to `Cc1cc(-c2cnc(N3C[C@@H](C)O[C@@H](C)C3)nc2-c2ccccc2C#N)ccn1`, for which the EC50 is around 2.51 µM.

Staying with this assay, now noted: relative to nicotine control.
In the case of `Cc1cc(-c2cnc(N3C[C@@H](C)O[C@@H](C)C3)nc2-c2ccccc2C#N)ccn1`, the “maximum potentiation of the response area relative to nicotine control” value is listed as “approximately 1200%”.
